SMILES strings stand for the structures.

These results are taken from patent publication US9012402B1, “Gel for topical delivery of NSAIDs to provide relief of musculoskeletal pain and methods for its preparation” (priority 2014, dated 2015).

A short description of series [1]: Fraction of drug unionized at a given pH. The series is classed as physicochemical.
The conditions of series [2]: topical, average of seven clinical studies; cited from earlier work.
For series [3] the following is noted: cited from earlier work.

Regarding `CC(C)Cc1ccc(C(C)C(=O)O)cc1` (stereo not shown) [ibuprofen], the fraction unionized in series [1] (at pH 3.5) was 88.8%; in series [1] (at pH 6.0), 2.45%. Moreover, the “fraction in the unionized form” value in series [1] (pH of 5 or less) is more than 20%. Further, the “fraction in unionized form” value in series [1] (pH of 6.5) is reported as 0.79%.
Consider `O=C(O)Cc1ccccc1Nc1c(Cl)cccc1Cl` [diclofenac], for which the “study participants who experienced relief of acute pain” value in series [2] is 52%.
On to `CC(C(=O)O)c1cccc(C(=O)c2ccccc2)c1` (stereo not shown) [Ketoprofen, 2-(3-benzoylphenyl)-propionic acid], for which, in series [3], the “Log P (octanol: water)” value was 2.68. For the same compound, the “study participants who experienced relief of acute pain” value in series [2] was 73%.
